Experimental data taken from ChEMBL document CHEMBL2150959, “Histamine H3 receptor as a drug discovery target” (J Med Chem, 2011).
pIC50, pKi: −log10 of the molar value. One block for each compound: values may come before it.

What was measured:
[1] = Half life in dog; format: ADME, organism-based, Canis lupus familiaris; settings: in vivo
Histamine H3 receptor [2] = target: T1, Histamine H3 receptor (Homo sapiens, UniProt Q9Y5N1); assay: Binding affinity to human histamine H3 receptor; settings: for Ki: read-out: pKi (converted)
[3] = Oral bioavailability in rat; format: ADME, organism-based; settings: in vivo
[4] = Oral bioavailability in dog; format: ADME, organism-based, Canis lupus familiaris; settings: in vivo
[5] = Half life in rat; format: ADME, organism-based; settings: in vivo
Histamine H1 receptor = Histamine H1 receptor (Homo sapiens, UniProt P35367)
Cavia porcellus [6] = assay: Antiinflammatory activity in po dosed wheal and flare guinea pig model; format: functional; settings: read-out: ID50 (the source's name)
Cavia porcellus [7] = assay: Antiinflammatory activity in iv dosed wheal and flare guinea pig model; format: functional; settings: read-out: ID50 (the source's name)
Histamine H3 receptor [8] = target: T1, Histamine H3 receptor; assay: Inverse agonist activity at human histamine H3 receptor by GTPgammaS binding assay; format: functional
[9] = Oral bioavailability in monkey; format: ADME, organism-based, Macaca mulatta; settings: rhesus monkey, in vivo
Histamine H3 receptor [10] = target: Histamine H3 receptor (Rattus norvegicus, UniProt Q9QYN8); assay: Binding affinity to rat cortical histamine H3 receptor; settings: for Ki: read-out: pKi (converted)
[11] = Half life in monkey; format: ADME, organism-based, Macaca mulatta; settings: rhesus monkey, in vivo
[12] = Oral bioavailability in rat at 1 mg/kg; format: ADME, organism-based; settings: in vivo
[13] = Half life in rat at 1 mg/kg, po; format: ADME, organism-based; set-up: dose 1 mg/kg, route oral; settings: in vivo
Rhesus monkey = assay: Reduction of food intake in rhesus monkey at 1 mg/kg; format: functional, Macaca mulatta; set-up: scale not given: the % may be the effect or the level left
Rattus norvegicus [14] = assay: Increase in paraventricular histamine levels in normal rat at 15 mg/kg, po; format: functional
[15] = Half life in human plasma; format: ADME, cell-free
[16] = Oral bioavailability in monkey at 1 mg/kg; format: ADME, organism-based, Macaca mulatta; settings: rhesus monkey, in vivo
[17] = Oral bioavailability in dog at 1 mg/kg; format: ADME, organism-based, Canis lupus familiaris; settings: in vivo
[18] = Volume of distribution in rat; format: ADME, organism-based; settings: in vivo
Rattus norvegicus [19] = assay: Increase in acetyl choline release in sc dosed rat prefrontal cortex; format: functional; settings: read-out: MED
Rattus norvegicus [20] = assay: Increase in histamine release in sc dosed rat prefrontal cortex; format: functional; settings: read-out: MED
Rattus norvegicus [21] = assay: Efficacy in sc dosed novel object recognition 24 hrs delay rat model; format: functional; settings: read-out: MED

Sequence of Histamine H3 receptor (Rattus norvegicus, UniProt Q9QYN8) (Q9QYN8 whole entry): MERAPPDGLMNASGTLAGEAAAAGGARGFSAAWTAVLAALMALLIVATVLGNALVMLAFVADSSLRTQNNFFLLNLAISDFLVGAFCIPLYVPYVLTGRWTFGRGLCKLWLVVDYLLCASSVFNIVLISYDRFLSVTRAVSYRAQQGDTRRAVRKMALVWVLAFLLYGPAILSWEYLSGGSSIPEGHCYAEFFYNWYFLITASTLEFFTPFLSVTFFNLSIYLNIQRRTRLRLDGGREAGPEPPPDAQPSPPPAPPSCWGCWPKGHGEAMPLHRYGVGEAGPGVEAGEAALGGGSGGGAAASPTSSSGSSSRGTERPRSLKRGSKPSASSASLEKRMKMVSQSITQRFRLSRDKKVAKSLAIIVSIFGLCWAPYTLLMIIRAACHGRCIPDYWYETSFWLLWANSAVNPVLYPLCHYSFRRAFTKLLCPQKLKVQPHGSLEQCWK
T1 sequence (Q9Y5N1 whole entry): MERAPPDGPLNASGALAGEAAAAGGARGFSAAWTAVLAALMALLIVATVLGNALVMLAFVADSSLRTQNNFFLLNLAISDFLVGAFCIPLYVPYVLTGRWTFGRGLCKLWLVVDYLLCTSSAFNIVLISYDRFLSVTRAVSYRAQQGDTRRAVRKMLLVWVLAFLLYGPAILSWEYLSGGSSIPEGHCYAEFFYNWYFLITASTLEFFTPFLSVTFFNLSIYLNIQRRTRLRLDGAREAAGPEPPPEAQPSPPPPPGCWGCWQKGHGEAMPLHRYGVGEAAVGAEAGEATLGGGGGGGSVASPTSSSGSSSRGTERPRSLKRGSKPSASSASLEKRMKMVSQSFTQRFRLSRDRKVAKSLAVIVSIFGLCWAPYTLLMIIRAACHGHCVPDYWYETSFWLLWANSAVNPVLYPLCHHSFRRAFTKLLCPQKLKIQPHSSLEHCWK
Sequence of Histamine H1 receptor (P35367 whole entry): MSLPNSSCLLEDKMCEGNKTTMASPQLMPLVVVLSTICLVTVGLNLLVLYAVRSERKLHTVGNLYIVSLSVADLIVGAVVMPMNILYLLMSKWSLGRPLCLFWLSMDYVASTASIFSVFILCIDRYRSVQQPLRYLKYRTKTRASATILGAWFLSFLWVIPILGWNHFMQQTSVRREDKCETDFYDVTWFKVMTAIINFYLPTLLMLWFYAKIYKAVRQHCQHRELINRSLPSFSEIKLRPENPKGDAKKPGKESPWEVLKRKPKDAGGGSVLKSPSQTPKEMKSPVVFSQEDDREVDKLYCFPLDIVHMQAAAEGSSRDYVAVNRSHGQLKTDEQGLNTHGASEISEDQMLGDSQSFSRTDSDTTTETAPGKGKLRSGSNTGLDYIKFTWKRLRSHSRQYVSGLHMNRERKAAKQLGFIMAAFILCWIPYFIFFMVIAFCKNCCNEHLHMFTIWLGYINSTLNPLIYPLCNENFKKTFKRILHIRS

- Ki (Histamine H3 receptor [2]): 1.58 nM
SMILES: C[C@H]1CC[C@H](C)N1CCCOc1ccc(-c2ccc(C(=O)N3CCOCC3)cc2)cc1 (single isomer, unassigned) [A-349,821]

- Ki (Histamine H3 receptor [10]): 0.631 nM
SMILES: CNC(=O)c1ccc(Oc2ccc3c(c2)CCN(C2CCC2)CC3)nc1 [GSK189254]

- pKi (Histamine H1 receptor): 7.80
SMILES: O=c1c2ccccc2c(Cc2ccc(Cl)cc2)nn1C[C@H]1CCCN1CCCCc1ccc(OCCCN2CCCCCC2)cc1 [GSK-1004723]

- half-life [5]: 15 h
- Vd [18]: > 100 L/kg
SMILES: c1cc(OCCCN2CCCCC2)ccc1CN1CCCCC1 [JNJ-5207852]

More lines, now with the values behind:

SMILES: CS(=O)(=O)c1ccc(C(=O)N2CCN(c3ccc(OC4CCN(C5CCC5)CC4)cc3)CC2)cc1
- half-life [1]: 5 h
- Ki (Histamine H3 receptor [2]): 0.316 nM
- bioavailability [3]: > 50%
- bioavailability [4]: 90%
- half-life [5]: 2 h
- pKi (Histamine H1 receptor): 5.60

SMILES: CC1(C)CCCN(CCCOc2ccc(C3CCN(C(=O)c4ccc(CCC(=O)O)c5ccccc45)CC3)cc2)C1
- Ki (Histamine H3 receptor [2]): 50.1 nM
- ED50 (Cavia porcellus [6]): 2.8 mg/kg
- ED50 (Cavia porcellus [7]): 0.6 mg/kg
- pKi (Histamine H1 receptor): 7.90

SMILES: CC(C)N1CCCN(C(=O)C2CCN(c3ccc(C(F)(F)F)nc3)CC2)CC1
- pIC50 (Histamine H3 receptor [8]): 8.60
- Ki (Histamine H3 receptor [2]): 0.316 nM

SMILES: N#Cc1ccc(-c2ccc(OCCCN3CCCN(C(=O)[C@@H](Cc4cscn4)NC(=O)c4ccco4)CC3)cc2)cc1
- Ki (Histamine H3 receptor [2]): 1.58 nM

SMILES: C[C@@H]1CCCN1CCc1cc2cc(-c3cn[nH]c3)ccc2o1
- half-life [1]: 1.7 h
- bioavailability [9]: 8%
- Ki (Histamine H3 receptor [10]): 3.16 nM
- Ki (Histamine H3 receptor [2]): 0.501 nM
- half-life [11]: 1.8 h
- bioavailability [3]: 26%
- bioavailability [4]: 30%
- half-life [5]: 2.9 h

SMILES: C[C@@H]1CCCN1CCc1ccc2cc(-n3ncccc3=O)ccc2c1
- bioavailability [12]: 84%
- pKi (Histamine H3 receptor [2]; read-out: Ki): 9.10
- half-life [13]: 4.9 h

SMILES: O=C(/C=C/c1ccc(C(F)(F)F)cc1)N1CCC[C@H]1CN1CCCC1
- Activity (Rhesus monkey): 75%
- Activity (Rattus norvegicus [14]): 339%

SMILES: C[C@@H]1CCCN1CCc1ccc2cc(-c3ccc(C#N)cc3)ccc2c1
- half-life [5]: 5.5 h

SMILES: C[C@@H](N)C(=O)N1CCN(CCCOc2ccc(C(=O)C3CC3)cc2)CC1
- Ki (Histamine H3 receptor [2]): 794 nM

SMILES: C[C@H](Cc1c[nH]cn1)/N=C(\c1ccccc1)c1ccccc1O
- half-life [15]: > 24 h

SMILES: C[C@@H]1CCCN1CCc1cc2cc(-c3ccc(C#N)cc3)ccc2o1
- bioavailability [12]: 52%
- bioavailability [16]: 89%
- bioavailability [17]: 74%

SMILES: C[C@@H](NC(=O)c1ccco1)C(=O)N1CCN(CCCOc2ccc(C(=O)C3CC3)cc2)CC1
- Ki (Histamine H3 receptor [10]): 0.631 nM

SMILES: Cc1cc2ncc(-c3ccc4cc(CCN5CCC[C@H]5C)ccc4n3)c(C)n2n1
- bioavailability [3]: 90%
- half-life [5]: 5.3 h

SMILES: CC(C)(C)CCC#C[C@@H]1C[C@H]1c1c[nH]cn1 [CIPRALISANT]
- pKi (Histamine H3 receptor [10]; read-out: Ki): 9.74

SMILES: CCNC(=O)[C@H]1C[C@@](F)(c2ccc(CN3CCCC3)c(F)c2)C1 [PF-03654746]
- minimal effective dose (Rattus norvegicus [19]): 3.2 mg/kg
- minimal effective dose (Rattus norvegicus [20]): 1 mg/kg
- minimal effective dose (Rattus norvegicus [21]): 0.32 mg/kg
